# pEC50, pKd: −log10 of the molar value. Peptide text beside a SMILES is read from it.
# Legend:
# human T1R2 ATD [1] = target: T1, human T1R2 ATD (Homo sapiens, UniProt Q8TE23); assay: Circular dichroism (CD) spectroscopy of ligand binding, human T1R2 ATD; settings: for pKd: measured by CD, 25 °C, 4.5 μM ATD protein, nonlinear regression at fixed wavelength; for change in CD profile / ellipticity upon ligand addition: His-hT1R2 ATD, 209 and 219 nm
# T1 construct: or Ser25-Thr489 in the 8xHis-Tag; made in house
# T1 sequence (Q8TE23 25-489): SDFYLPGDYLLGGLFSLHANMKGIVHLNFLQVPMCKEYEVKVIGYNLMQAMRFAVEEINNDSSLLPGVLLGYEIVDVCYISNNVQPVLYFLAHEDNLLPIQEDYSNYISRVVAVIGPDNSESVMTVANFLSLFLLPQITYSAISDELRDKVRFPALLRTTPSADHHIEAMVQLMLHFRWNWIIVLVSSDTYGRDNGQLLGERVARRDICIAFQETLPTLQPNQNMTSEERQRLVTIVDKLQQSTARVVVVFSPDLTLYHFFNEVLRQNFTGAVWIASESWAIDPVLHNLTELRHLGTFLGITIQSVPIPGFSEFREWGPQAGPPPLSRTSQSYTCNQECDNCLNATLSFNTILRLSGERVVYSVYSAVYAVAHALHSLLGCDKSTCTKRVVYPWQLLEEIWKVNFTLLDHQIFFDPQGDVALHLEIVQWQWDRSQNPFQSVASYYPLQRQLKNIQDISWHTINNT
# Method: CD spectra were recorded at 25 °C on an Model 202SF circular dichroism spectrometer (Aviv, Lakewood, NY, USA) equipped with a Peltier temperature control. Samples were added to a 0.01 cm path length quartz cuvette with a concentration of the ATD (from human and mouse) of about 0.3 mg/mL (4.5 μM) in 10 mM Tris-HCl, 150 mM NaCl, 10% glycerol, pH 7.4. Data was collected every 1 nm with an averaging time of 5 s. The spectral bandwidth was 1 nm. Spectra were corrected for buffer and ligands contributions and converted to mean ellipticity in deg cm^2·dmol^−1. The content of α-helix was computed using the deconvolution program from Chen et al.. […] The KD was calculated by analyzing CD data at a fixed wavelength versus ligand concentration using a nonlinear regression method (see Table 1). MSG was used as a negative control.
# human T1R2 ATD [2] = target: T1, human T1R2 ATD; assay: Intrinsic fluorescence spectroscopy, human T1R2 ATD; format: binding; settings: excitation 280 nm; for change in intrinsic fluorescence intensity: human T1R2 ATD, ligand 0–64 μM
# Method: (§1) Samples were prepared in the same way as for the CD experiments. Experiments were performed at 25 °C on Carey Eclipse instrument (Agilent, Santa Clara, CA, USA). Spectra were subtracted from the buffer ± ligand backgrounds for presentation. The curves at 340 nm were the best fits of the data obtained by a regression method using Microsoft Excel software (Microsoft, Redmont, WA, USA).
# mouse T1R2 ATD [3] = target: T2, mouse T1R2 ATD (Mus musculus, UniProt Q925I4); assay: Circular dichroism (CD) spectroscopy of ligand binding, mouse T1R2 ATD; settings: mouse His-T1R2 ATD, saturating concentrations (neotame up to 500 μM)
# T2 construct: The mouse 8xHis-Tev-ATD-mT1R2 construct ranged from residues Gly2-Pro466; made in house
# T2 sequence (Q925I4 2-465 limits assumed): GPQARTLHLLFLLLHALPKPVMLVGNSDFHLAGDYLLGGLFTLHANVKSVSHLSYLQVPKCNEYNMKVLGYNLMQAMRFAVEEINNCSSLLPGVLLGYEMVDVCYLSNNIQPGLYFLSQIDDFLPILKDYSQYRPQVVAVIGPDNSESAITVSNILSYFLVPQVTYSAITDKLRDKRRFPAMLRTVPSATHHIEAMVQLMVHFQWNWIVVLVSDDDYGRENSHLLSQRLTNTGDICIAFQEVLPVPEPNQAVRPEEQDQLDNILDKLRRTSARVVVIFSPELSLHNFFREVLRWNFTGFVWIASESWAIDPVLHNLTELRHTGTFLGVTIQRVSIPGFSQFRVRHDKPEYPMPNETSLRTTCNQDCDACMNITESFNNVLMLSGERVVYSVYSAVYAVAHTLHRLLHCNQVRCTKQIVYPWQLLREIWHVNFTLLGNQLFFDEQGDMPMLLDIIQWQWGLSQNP
# Method: Data was collected every 1 nm with an averaging time of 5 s. The spectral bandwidth was 1 nm. Spectra were corrected for buffer and ligands contributions and converted to mean ellipticity in deg cm^2·dmol^−1. The content of α-helix was computed using the deconvolution program from Chen et al.. […] The KD was calculated by analyzing CD data at a fixed wavelength versus ligand concentration using a nonlinear regression method (see Table 1). MSG was used as a negative control.
# mouse T1R2 ATD [4] = target: T2, mouse T1R2 ATD; assay: Intrinsic fluorescence spectroscopy, mouse T1R2 ATD; format: binding; settings: excitation 280 nm
# Method: as §1
# human T1R2 ATD [5] = target: T3, human T1R2 ATD (Homo sapiens, UniProt Q8TE23); assay: Saturation transfer difference NMR (STD-NMR) binding assay; settings: neotame 3–10 mM at 27 °C; MSG at 7–37 °C
# T3 construct: The human constructs ranged from residues Asn24-Met494 for human (ATD-hT1R2) in the SUMO fusion; His (N); TEV cleavage site (N); made in house
# T3 sequence (Q8TE23 24-494): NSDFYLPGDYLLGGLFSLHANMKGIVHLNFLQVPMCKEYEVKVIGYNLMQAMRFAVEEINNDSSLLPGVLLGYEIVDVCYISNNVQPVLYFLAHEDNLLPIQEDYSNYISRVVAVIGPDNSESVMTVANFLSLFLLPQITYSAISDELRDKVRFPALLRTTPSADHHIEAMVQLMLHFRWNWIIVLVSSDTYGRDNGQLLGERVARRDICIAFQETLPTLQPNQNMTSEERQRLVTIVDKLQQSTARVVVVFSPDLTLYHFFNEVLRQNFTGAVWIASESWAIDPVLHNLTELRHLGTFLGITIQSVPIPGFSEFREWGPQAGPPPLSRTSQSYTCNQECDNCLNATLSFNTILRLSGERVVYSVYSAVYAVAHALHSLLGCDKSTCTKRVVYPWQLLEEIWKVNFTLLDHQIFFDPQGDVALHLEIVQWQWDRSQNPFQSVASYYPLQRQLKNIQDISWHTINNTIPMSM
# Method: The ligand binding activity of ATD-T1R2 for all ligands was confirmed with a NMR-STD binding assay as previously described. Aliquots of the pure labeled SUMO-T1R2 protein were incubated with desired titrating ligands at 0.5–20 fold molar excess and concentrated to a final concentration of ~0.05 mM in 10 mM phosphate buffer (pH 7.4) containing 150 mM NaCl, 2.7 mM KCl, 5 mM DTT, 5x protease inhibitor (Roche) and 0.05% NaN3. Monosodium glutamate (MSG, non-sweet molecule) was used as a negative control. NMR data were collected on a VNMRS spectrometer (Varian, Palo Alto, CA, USA) operating at 800 MHz and equipped with a cryogenic probe. STD-NMR data collection and analysis was carried out as previously described.
SMILES,pKd (human T1R2 ATD [1]),change in intrinsic fluorescence intensity (human T1R2 ATD [2]),change in CD profile / ellipticity upon ligand addition (human T1R2 ATD [1]),change in ellipticity upon ligand addition (mouse T1R2 ATD [3]),change in intrinsic fluorescence intensity (mouse T1R2 ATD [4]),STD signal / binding (human T1R2 ATD [5]),"pEC50 (human T1R2 ATD [2]; h-T1R2 ATD, signal at 336 nm, read-out: ligand concentration at half of the maximal value of fluorescence change)","pEC50 (mouse T1R2 ATD [4]; signal at 336 nm, read-out: half-maximal value of fluorescence intensity decrease)"
CC1=CC(=O)NS(=O)(=O)O1 [Acetasulfame],4.00,–,–,–,–,–,–,–
COC(=O)[C@H](Cc1ccccc1)NC(=O)[C@@H](N)CC(=O)O [Aspartame] (HELM PEPTIDE1{D.F.[CO[*:1]]}$$$$V2.0),< 3.52,–,–,–,–,–,–,–
N[C@H](Cc1c[nH]c2ccccc12)C(=O)O [D-Tryptophan],3.30,–,–,–,–,–,–,–
"N[C@@H](CCC(=O)O)C(=O)[O-].[Na+] [MSG, monosodium glutamate]",–,no change in intrinsic fluorescence intensity,no change,no change in ellipticity,did not change the intrinsic fluorescence intensity,no STD signal,–,–
OC[C@H]1O[C@H](O[C@]2(CCl)O[C@H](CCl)[C@@H](O)[C@@H]2O)[C@H](O)[C@@H](O)[C@H]1Cl [Sucralose],4.40,decreasing fluorescence intensity,–,–,–,–,5.30,–
OC[C@H]1O[C@@](CO)(O[C@H]2O[C@H](CO)[C@@H](O)[C@H](O)[C@H]2O)[C@@H](O)[C@@H]1O [Sucrose],4.40,did not change the fluorescence intensity,small decrease in ellipticity,small decrease in ellipticity,decrease in the fluorescence intensity,–,–,5.10
